Our source for the IC50 values is patent US9669034B2, “4-aryl-N-phenyl-1,3,5-triazin-2-amines containing a sulfoximine group” (BAYER INTELLECTUAL PROPERTY GMBH, priority 2011, dated 2017).

Read-outs that look alike come from different tables or passages of the source.

For experiment [1], the target named is CDK9/CycT1 (Homo sapiens (Human), UniProt P50750). As to the kind of experiment: CDK9/CycT1 kinase assay (TR-FRET). Format: biochemical. The conditions noted are these: Method 1. The method in brief: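 Recombinant full-length His-tagged human CDK9/CycT1, insect-cell expressed and Ni-NTA purified. Substrate is a biotinylated peptide (biotin-Ttds-linked). Kinase inhibition is read out by TR-FRET.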
For orientation: In TR-FRET formats the signal depends on donor and acceptor labels being close together.

The target of experiment [2] is CDK2/CycE (Homo sapiens (Human), UniProt P24941). As to the kind of experiment: CDK2/CycE kinase assay (TR-FRET). Format: biochemical. Conditions: Method 2. The method in brief:
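Enzyme was GST-tagged human CDK2 with GST-tagged human CycE, expressed in Sf9 insect cells and glutathione-affinity purified. The kinase reaction used a biotinylated peptide substrate, with inhibition measured by TR-FRET.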

The subject of experiment [3] is HeLa human cervical tumour cells. Description: Proliferation assay (crystal violet), HeLa. Format: cell-based. The conditions noted are these: Method 3, read-out: Inhibition of HeLa cell proliferation, IC50. Summed up:
(§1)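 4-day compound exposure ([…]; DMSO 0.5%) starting 24 h post-plating. Densities: NCI-H460 and HeLa 3000, HeLa-MaTu-ADR 5000, Caco-2 1500 cells/well; 10% FCS. Glutaraldehyde fix, crystal violet stain, A595.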

Experiment [4] has as its system HeLa-MaTu-ADR, multidrug-resistant human cervical carcinoma cells. As to the kind of experiment: Proliferation assay (crystal violet), HeLa-MaTu-ADR. The conditions noted are these: Method 3, read-out: Inhibition of HeLa/MaTu/ADR cell proliferation, IC50. Type of experiment: cell-based. Summed up:
as §1

The subject of experiment [5] is NCI-H460, human non-small cell lung carcinoma cells. Description: Proliferation assay (crystal violet), NCI-H460. Type of experiment: cell-based. Conditions: Method 3, read-out: Inhibition of NCI-H460 cell proliferation, IC50. The method in brief:
as §1

For experiment [6], the system named is DU145, hormone-independent human prostate carcinoma cells. Description: Proliferation assay (crystal violet), DU145. Format: cell-based. The conditions noted are these: Method 3, read-out: Inhibition of DU145 cell proliferation, IC50. The method in brief:
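DU145 hormone-independent human prostate carcinoma cells (ATCC HTB-81) were seeded at 5000 cells/well in 96-well plates in 200 μL growth medium with 10% fetal calf serum. After 24 hours, a zero-point plate was stained. The other plates got fresh medium containing test substances ([…], 0.5% dimethylsulfoxide) and were incubated for 4 days.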

Experiment [7] concerns Caco-2 human colorectal carcinoma. As to the kind of experiment: Proliferation assay (crystal violet), Caco-2. Format: cell-based. Conditions: Method 3, read-out: Inhibition of Caco-2 cell proliferation, IC50. Summed up: as §1
The subject of experiment [8] is B16F10 mouse melanoma cells. Description: Proliferation assay (crystal violet), B16F10. Type of experiment: cell-based. Conditions: Method 3, read-out: Inhibition of B16F10 cell proliferation, IC50. Summed up: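 B16F10 mouse melanoma cells (ATCC CRL-6475) were seeded at 1000 cells/well into 96-well plates in 200 μL growth medium containing 10% fetal calf serum. After 24 hours, one zero-point plate was stained with crystal violet. The remaining plates got fresh medium with test substances (0 M and […], 0.5% dimethylsulfoxide) and were incubated for 4 days.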

Where [9] appears, read: Homo sapiens, NCI-H460, NCI-H460 cells.
[10] abbreviates: Homo sapiens, DU-145, DU145 cells.
[11] abbreviates: Homo sapiens, Caco-2, Caco-2 cells.
Setting [12] is: Mus musculus, B16-F10, B16F10 cells.

Sequence of CDK9/CycT1 (P50750 whole entry): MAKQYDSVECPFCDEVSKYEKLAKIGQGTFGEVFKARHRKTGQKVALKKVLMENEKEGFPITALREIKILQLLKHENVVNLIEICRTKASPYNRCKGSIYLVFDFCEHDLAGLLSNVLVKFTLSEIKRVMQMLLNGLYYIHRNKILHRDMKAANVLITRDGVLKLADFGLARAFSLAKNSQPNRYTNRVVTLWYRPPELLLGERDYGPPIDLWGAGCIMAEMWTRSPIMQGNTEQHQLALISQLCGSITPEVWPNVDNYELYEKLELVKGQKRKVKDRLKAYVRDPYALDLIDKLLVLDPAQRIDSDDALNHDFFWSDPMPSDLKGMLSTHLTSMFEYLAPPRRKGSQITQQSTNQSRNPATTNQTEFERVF
Sequence of CDK9/CycT1 (O60563 whole entry partner): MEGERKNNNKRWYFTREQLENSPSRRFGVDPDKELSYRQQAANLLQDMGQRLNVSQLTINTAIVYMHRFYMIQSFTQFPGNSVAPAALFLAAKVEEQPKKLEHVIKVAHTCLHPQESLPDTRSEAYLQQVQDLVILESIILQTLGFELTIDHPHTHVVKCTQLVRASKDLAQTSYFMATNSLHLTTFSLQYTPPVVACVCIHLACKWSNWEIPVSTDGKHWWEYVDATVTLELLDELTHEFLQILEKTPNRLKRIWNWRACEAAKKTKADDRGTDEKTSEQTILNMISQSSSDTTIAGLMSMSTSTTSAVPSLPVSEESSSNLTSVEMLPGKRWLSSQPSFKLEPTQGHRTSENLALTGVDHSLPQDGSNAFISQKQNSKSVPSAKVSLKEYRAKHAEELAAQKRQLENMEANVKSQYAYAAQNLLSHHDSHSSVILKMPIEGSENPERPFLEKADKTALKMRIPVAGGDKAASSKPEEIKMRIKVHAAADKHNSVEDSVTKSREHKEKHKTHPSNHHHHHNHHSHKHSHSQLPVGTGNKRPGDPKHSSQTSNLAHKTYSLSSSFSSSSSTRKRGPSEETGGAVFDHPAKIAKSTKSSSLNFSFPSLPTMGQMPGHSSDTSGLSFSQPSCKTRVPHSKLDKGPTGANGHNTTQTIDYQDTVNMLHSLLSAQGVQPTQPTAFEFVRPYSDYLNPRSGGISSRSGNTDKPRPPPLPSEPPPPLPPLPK

With `CS(=N)(=O)Cc1cccc(Nc2ncnc(-c3ccc(F)cc3OCc3cc(F)cc(Cl)c3)n2)c1` (racemic) [Example 94, (rac)-4-{2-[(3-Chloro-5-fluorobenzyl)oxy]-4-fluorophenyl}-N-{3-[(S-methylsulfonimidoyl)methyl]phenyl}-1,3,5-triazin-2-amine], the IC50 in experiment [1] was determined as 3 nM; in experiment [2], 230 nM; in experiment [3] (Homo sapiens, HeLa), 110 nM; in experiment [4] (Homo sapiens, HeLa), 190 nM; in experiment [5] (setting [9]) it was 200 nM; in experiment [6] (setting [10]) it was 140 nM. Also, the figures for the IC50 in experiment [7] (setting [11]) and in experiment [8] (setting [12]) were 220 nM and 180 nM, respectively.
Consider `CS(=N)(=O)Cc1cccc(Nc2ncnc(-c3ccc(F)cc3OCc3cc(F)cc(C(F)(F)F)c3)n2)c1` (racemic) [Example 89, (rac)-4-(4-Fluoro-2-{[3-fluoro-5-(trifluoromethyl)benzyl]oxy}phenyl)-N-{3-[(S-methylsulfonimidoyl)methyl]phenyl}-1,3,5-triazin-2-amine], for which the IC50 in experiment [1] is 4 nM; in experiment [2], 280 nM; in experiment [3] (Homo sapiens, HeLa), 470 nM; in experiment [4] (Homo sapiens, HeLa), 450 nM; in experiment [5] (setting [9]) it was 370 nM; in experiment [6] (setting [10]), 420 nM. Also, the IC50 was 520 nM in experiment [7] (setting [11]) and 470 nM in experiment [8] (setting [12]).
For `CS(=N)(=O)Cc1cccc(Nc2ncnc(-c3ccc(F)cc3OCc3ccncc3)n2)c1` (racemic) [Example 68, (rac)-4-[4-Fluoro-2-(pyridin-4-ylmethoxy)phenyl]-N-{3-[(S-methylsulfonimidoyl)methyl]phenyl}-1,3,5-triazin-2-amine], the IC50 in experiment [1] stood at 14 nM; in experiment [2] it was 1500 nM; in experiment [3] (Homo sapiens, HeLa), 410 nM; in experiment [4] (Homo sapiens, HeLa), 3000 nM; in experiment [5] (setting [9]), 1100 nM; in experiment [6] (setting [10]) it was 460 nM. The IC50 in experiment [7] (setting [11]) came to 1300 nM; in experiment [8] (setting [12]), 740 nM.
Consider `CS(=N)(=O)Cc1cccc(Nc2ncnc(-c3ccc(F)cc3OCc3cccc(C#N)c3)n2)c1` (racemic) [Example 98, (rac)-3-({5-Fluoro-2-[4-({3-[(S-methylsulfonimidoyl)methyl]phenyl}amino)-1,3,5-triazin-2-yl]phenoxy}methyl)benzonitrile], for which the IC50 in experiment [1] came out at 3 nM; in experiment [2], 180 nM; in experiment [3] (Homo sapiens, HeLa), 140 nM; in experiment [4] (Homo sapiens, HeLa), 260 nM; in experiment [5] (setting [9]), 120 nM; in experiment [6] (setting [10]) it was 120 nM. For the same compound, the IC50 in experiment [7] (setting [11]) turned out to be 150 nM; in experiment [8] (setting [12]) it was 130 nM.
Take `CS(=N)(=O)Cc1cccc(Nc2ncnc(-c3ccc(F)cc3OCc3ccc(F)cc3)n2)c1` (single isomer, unassigned) [Example 56.b, 4-{4-Fluoro-2-[(4-fluorobenzyl)oxy]phenyl}-N-{3-[(S-methylsulfonimidoyl)methyl]phenyl}-1,3,5-triazin-2-amine]: the IC50 turned out to be 5 nM in experiment [1]; 560 nM in experiment [2]; 540 nM in experiment [3]; 540 nM in experiment [4]; 470 nM in experiment [5] (NCI-H460 cells); 400 nM in experiment [6] (DU145 cells). Also, the IC50 worked out at 540 nM in experiment [7] (Caco-2 cells) and 390 nM in experiment [8] (B16F10 cells).
As to `C#CCOc1cc(F)ccc1-c1ncnc(Nc2cccc(CS(C)(=N)=O)c2)n1` (single isomer, unassigned) [Example 79, 4-[4-Fluoro-2-(prop-2-yn-1-yloxy)phenyl]-N-{3-[(S-methylsulfonimidoyl)methyl]phenyl}-1,3,5-triazin-2-amine], the IC50 in experiment [1] stood at 5 nM; in experiment [2], 440 nM; in experiment [3] it was 440 nM; in experiment [4], 350 nM; in experiment [5] (NCI-H460 cells), 420 nM; in experiment [6] (DU145 cells) it was 380 nM. Moreover, the IC50 came to 390 nM in experiment [7] (Caco-2 cells) and 370 nM in experiment [8] (B16F10 cells).
For the compound `CCOC(=O)N=S(C)(=O)Cc1cccc(Nc2ncnc(-c3cccc4c3OCCO4)n2)c1` (racemic) [Example 37, (rac)-Ethyl [(3-{[4-(2,3-dihydro-1,4-benzodioxin-5-yl)-1,3,5-triazin-2-yl]amino}benzyl)(methyl)oxido-λ^6-sulfanylidene]carbamate], the IC50 was 9 nM in experiment [1]; 2300 nM in experiment [2]; 630 nM in experiment [3] (Homo sapiens, HeLa); 750 nM in experiment [4] (Homo sapiens, HeLa); 920 nM in experiment [5] (setting [9]); 500 nM in experiment [6] (setting [10]). Moreover, the values for the IC50 in experiment [7] (setting [11]) and in experiment [8] (setting [12]) were 810 nM and 720 nM, respectively.
For the compound `C#CCOc1cc(F)ccc1-c1ncnc(Nc2cccc(CS(C)(=N)=O)c2)n1` (single isomer, unassigned) [Example 78, 4-[4-Fluoro-2-(prop-2-yn-1-yloxy)phenyl]-N-{3-[(S-methylsulfonimidoyl)methyl]phenyl}-1,3,5-triazin-2-amine], the IC50 in experiment [1] turned out to be 9 nM; in experiment [2], 580 nM; in experiment [3] (Homo sapiens, HeLa), 650 nM; in experiment [4] (Homo sapiens, HeLa), 260 nM; in experiment [5] (setting [9]), 390 nM; in experiment [6] (setting [10]), 370 nM. Moreover, the IC50 in experiment [7] (setting [11]) came to 760 nM; in experiment [8] (setting [12]), 500 nM.
In the case of `CS(=N)(=O)Cc1cccc(Nc2ncnc(-c3ccc(F)cc3OCc3cccc(F)c3)n2)c1` (racemic) [Example 90, (rac)-4-{4-Fluoro-2-[(3-fluorobenzyl)oxy]phenyl}-N-{3-[(S-methylsulfonimidoyl)methyl]phenyl}-1,3,5-triazin-2-amine], the IC50 was determined as 2 nM in experiment [1]; 260 nM in experiment [2]; 170 nM in experiment [3] (Homo sapiens, HeLa); 100 nM in experiment [4] (Homo sapiens, HeLa); 110 nM in experiment [5] (setting [9]); 110 nM in experiment [6] (setting [10]). The IC50 was 80 nM in experiment [7] (setting [11]) and 100 nM in experiment [8] (setting [12]).
On to `CS(=N)(=O)Cc1cccc(Nc2ncnc(-c3ccc(F)cc3OCc3cc(F)cc(F)c3F)n2)c1` (racemic) [Example 101, (rac)-4-{4-Fluoro-2-[(2,3,5-trifluorobenzyl)oxy]phenyl}-N-{3-[(S-methylsulfonimidoyl)methyl]phenyl}-1,3,5-triazin-2-amine], for which the IC50 in experiment [1] is 4 nM; in experiment [2], 500 nM; in experiment [3] (Homo sapiens, HeLa), 330 nM; in experiment [4] (Homo sapiens, HeLa) it was 350 nM; in experiment [5] (setting [9]) it was 360 nM; in experiment [6] (setting [10]), 340 nM. Besides, the IC50 in experiment [7] (setting [11]) was 240 nM; in experiment [8] (setting [12]), 340 nM.
For the compound `COc1cc(F)ccc1-c1ncnc(Nc2cc(F)cc(CS(C)(=O)=NC#N)c2)n1` (racemic) [Example 70, (rac)-[(3-Fluoro-5-{[4-(4-fluoro-2-methoxyphenyl)-1,3,5-triazin-2-yl]amino}benzyl)(methyl)oxido-λ^6-sulfanylidene]cyanamide], the IC50 in experiment [1] turned out to be 6 nM; in experiment [2], 180 nM; in experiment [3] (Homo sapiens, HeLa) it was 150 nM; in experiment [4] (Homo sapiens, HeLa), 120 nM; in experiment [5] (setting [9]), 230 nM; in experiment [6] (setting [10]), 79 nM. Besides, the IC50 was determined as 170 nM in experiment [7] (setting [11]) and 130 nM in experiment [8] (setting [12]).
On to `CS(=N)(=O)Cc1cccc(Nc2ncnc(-c3ccc(F)cc3OCc3ccc(Cl)cc3)n2)c1` (racemic) [Example 87, (rac)-4-{2-[(4-Chlorobenzyl)oxy]-4-fluorophenyl}-N-{3-[(S-methylsulfonimidoyl)methyl]phenyl}-1,3,5-triazin-2-amine], for which the IC50 is 3 nM in experiment [1]; 680 nM in experiment [2]; 560 nM in experiment [3] (Homo sapiens, HeLa); 450 nM in experiment [4] (Homo sapiens, HeLa); 570 nM in experiment [5] (setting [9]); 610 nM in experiment [6] (setting [10]). Moreover, the IC50 was determined as 800 nM in experiment [7] (setting [11]) and 590 nM in experiment [8] (setting [12]).
